Reference: patent US11583572B2, “Encapsulation of ultra-stable insulin analogues with polymer melts” (CASE WESTERN RESERVE UNIVERSITY, priority 2015, dated 2023)
Bridges are numbered along the chain shown (N, C = ends). Where no end group is shown, it is not given here.

Experiments:
[1] = target: A isoform of the insulin receptor (Homo sapiens, UniProt P06213)
[2] = Elution of protein from PLGA polymer cylinders in phosphate-buffered saline (Bradford assay calibrated by ELISA); type: physicochemical; settings: 5% PEG, PBS pH 7.4, 37° C.
Protocol: FIG. 4 is a graph showing elution of ultra-stable single-chain analogue (SCI) from PLGA polymer (50-50%) in phosphate-buffered saline (pH 7.4 and 37° C.). Horizontal axis denotes soaking time. Vertical axis denotes nanograms of insulin analogue (dark gray triangles) or relative Bradford-active material in control polymers containing hen egg white lysozyme (light gray squares) or no protein (dark gray diamonds). The latter represents background signal in the Bradford assay due to non-protein material. Horizontal plateau at days 10-15 represents no further elution of protein from the polymers. Samples were made with 5% PEG (mean molecular mass 8 kDa) to optimize the near-linear rate of SCI elution between 1-10 days. Immediate burst release of a portion of the material is not shown.
Elution of insulin analogue protein from a polymer melt in phosphate buffered saline (PBS) at pH 7.4 was also examined. Test cylindrical polymers were prepared with 50%-50% PLGA containing 25% weight/weight of a single-chain insulin (SCI) analogue stabilized by a fourth disulfide bridge between residues B4 and A10. […]
The cumulative amounts of protein released are also provided below in Table 1. In this table the micrograms of insulin corresponding to the Bradford assay was verified by ELISA whereas the readings for lysozyme are uncalibrated by an independent assay.

A isoform of the insulin receptor, sequence (P06213 28-746 isoform P06213-2 limits assumed): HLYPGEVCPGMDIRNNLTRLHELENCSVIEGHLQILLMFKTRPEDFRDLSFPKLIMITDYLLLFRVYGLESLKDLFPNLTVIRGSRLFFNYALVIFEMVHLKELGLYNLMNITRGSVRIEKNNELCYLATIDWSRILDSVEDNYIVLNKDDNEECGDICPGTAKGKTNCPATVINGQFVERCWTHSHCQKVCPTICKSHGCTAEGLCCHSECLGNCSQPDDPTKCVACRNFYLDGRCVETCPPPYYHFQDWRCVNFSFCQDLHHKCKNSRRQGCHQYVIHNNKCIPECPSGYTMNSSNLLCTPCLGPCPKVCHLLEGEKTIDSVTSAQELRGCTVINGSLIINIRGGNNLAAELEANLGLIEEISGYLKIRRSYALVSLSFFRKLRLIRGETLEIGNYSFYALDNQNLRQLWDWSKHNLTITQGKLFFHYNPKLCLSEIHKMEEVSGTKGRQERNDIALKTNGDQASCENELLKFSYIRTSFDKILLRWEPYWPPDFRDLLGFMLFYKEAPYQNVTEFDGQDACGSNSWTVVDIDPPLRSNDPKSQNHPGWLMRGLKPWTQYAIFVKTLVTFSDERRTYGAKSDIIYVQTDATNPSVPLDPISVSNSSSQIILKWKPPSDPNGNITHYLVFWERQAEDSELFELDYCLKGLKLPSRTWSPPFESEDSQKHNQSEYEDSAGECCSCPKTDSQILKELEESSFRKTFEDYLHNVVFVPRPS
A isoform of the insulin receptor, sequence (P06213 763-1382 partner limits assumed): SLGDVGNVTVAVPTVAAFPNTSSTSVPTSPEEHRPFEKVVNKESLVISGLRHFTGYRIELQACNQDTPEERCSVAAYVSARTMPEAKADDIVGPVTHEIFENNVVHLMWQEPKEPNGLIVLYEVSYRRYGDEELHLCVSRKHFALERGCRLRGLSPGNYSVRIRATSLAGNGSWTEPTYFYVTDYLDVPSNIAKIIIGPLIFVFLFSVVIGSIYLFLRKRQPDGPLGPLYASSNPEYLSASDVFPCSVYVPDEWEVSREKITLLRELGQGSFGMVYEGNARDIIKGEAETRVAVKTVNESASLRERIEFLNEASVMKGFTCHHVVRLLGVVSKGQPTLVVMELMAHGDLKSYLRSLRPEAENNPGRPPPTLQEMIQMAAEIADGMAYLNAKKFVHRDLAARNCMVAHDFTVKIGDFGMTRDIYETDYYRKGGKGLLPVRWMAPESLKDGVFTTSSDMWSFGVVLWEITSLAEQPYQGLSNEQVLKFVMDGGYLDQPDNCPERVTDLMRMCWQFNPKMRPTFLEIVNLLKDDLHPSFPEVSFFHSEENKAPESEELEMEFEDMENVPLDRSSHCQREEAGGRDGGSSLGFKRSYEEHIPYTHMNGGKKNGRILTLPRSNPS

| Substance | affinity for the A isoform of the insulin receptor relative to human insulin [1] | protein release from PLGA polymer during days 10-15 [2] |
| --- | --- | --- |
| FVNCHLCGSHLVEALYLVCGERGFFYTDPTEEGPRRGIVEQCCHSCCSLEQLENYCN (disulfide 4-46, 7-43, 19-56, 42-47) [4SS 81-04] | 120±20% |  |
| hen egg-white lysozyme: control protein in analogous co-polymer instead of an insulin analogue |  | no further release |
